Experimental findings from patent US20220290140A1, “TRANS-CYCLOOCTENE LABELED ANTISENSE OLIGONUCLEOTIDES, RADIO LABELED TETRAZINE AND METHODS” (Biogen MA Inc., priority 2019, published 2022) are described below.

Common to all, as to assay type: in vitro ADME
The target in one data set is T1, P-gp (Homo sapiens, UniProt P08183).
T1 construct: expressed in transfected cells; host or cells: MDCK (canine kidney) cells expressing P-gp
Nature of the data set: MDCK-P-gp cell model of permeability (efflux ratio). Particulars: dog, MDCK-MDR1. The text has this:
(§1) As pretargeting is a 2-component system, an ^18F-Tz was developed to be CNS-penetrant based on cnsPET-MPO modeling (Zhang, L., et al. (2018). J Med Chem 61(8): 3296-3308).

Data set [1] can be described thus: Plasma protein binding (PPB). Particulars: rat, read-out: plasma protein binding, unbound.
Excerpt: as §1

Data set [2] in a line: Brain protein binding (BPB). The conditions noted are these: rat, brain tissue (brain protein binding).
Excerpt: as §1

In the next data set the target is T2, BCRP (Homo sapiens, UniProt Q9UNQ0).
T2 construct: expressed in transfected cells; host or cells: MDCK (canine kidney) cells expressing BCRP
T2 sequence (Q9UNQ0 1-655): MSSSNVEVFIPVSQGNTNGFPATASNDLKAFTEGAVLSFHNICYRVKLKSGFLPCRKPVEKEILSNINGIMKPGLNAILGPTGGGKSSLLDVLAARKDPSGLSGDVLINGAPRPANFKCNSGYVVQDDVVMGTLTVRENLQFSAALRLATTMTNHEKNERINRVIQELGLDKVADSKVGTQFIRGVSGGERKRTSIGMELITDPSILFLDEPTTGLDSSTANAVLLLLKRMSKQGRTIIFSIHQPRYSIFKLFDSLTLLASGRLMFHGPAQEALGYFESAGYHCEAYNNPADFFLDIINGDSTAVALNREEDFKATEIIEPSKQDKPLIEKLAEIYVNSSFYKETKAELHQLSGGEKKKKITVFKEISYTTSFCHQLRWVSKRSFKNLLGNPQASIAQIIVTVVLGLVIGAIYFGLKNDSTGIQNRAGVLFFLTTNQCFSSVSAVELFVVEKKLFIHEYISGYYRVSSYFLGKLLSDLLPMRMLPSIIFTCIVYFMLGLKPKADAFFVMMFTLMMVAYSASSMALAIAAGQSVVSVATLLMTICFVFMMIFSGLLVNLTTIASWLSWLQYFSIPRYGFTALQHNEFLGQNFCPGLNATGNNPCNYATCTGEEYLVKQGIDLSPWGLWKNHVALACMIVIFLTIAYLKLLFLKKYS
Nature of the data set: in vitro. Particulars: dog.
Excerpt: as §1

T1 sequence (P08183 whole entry): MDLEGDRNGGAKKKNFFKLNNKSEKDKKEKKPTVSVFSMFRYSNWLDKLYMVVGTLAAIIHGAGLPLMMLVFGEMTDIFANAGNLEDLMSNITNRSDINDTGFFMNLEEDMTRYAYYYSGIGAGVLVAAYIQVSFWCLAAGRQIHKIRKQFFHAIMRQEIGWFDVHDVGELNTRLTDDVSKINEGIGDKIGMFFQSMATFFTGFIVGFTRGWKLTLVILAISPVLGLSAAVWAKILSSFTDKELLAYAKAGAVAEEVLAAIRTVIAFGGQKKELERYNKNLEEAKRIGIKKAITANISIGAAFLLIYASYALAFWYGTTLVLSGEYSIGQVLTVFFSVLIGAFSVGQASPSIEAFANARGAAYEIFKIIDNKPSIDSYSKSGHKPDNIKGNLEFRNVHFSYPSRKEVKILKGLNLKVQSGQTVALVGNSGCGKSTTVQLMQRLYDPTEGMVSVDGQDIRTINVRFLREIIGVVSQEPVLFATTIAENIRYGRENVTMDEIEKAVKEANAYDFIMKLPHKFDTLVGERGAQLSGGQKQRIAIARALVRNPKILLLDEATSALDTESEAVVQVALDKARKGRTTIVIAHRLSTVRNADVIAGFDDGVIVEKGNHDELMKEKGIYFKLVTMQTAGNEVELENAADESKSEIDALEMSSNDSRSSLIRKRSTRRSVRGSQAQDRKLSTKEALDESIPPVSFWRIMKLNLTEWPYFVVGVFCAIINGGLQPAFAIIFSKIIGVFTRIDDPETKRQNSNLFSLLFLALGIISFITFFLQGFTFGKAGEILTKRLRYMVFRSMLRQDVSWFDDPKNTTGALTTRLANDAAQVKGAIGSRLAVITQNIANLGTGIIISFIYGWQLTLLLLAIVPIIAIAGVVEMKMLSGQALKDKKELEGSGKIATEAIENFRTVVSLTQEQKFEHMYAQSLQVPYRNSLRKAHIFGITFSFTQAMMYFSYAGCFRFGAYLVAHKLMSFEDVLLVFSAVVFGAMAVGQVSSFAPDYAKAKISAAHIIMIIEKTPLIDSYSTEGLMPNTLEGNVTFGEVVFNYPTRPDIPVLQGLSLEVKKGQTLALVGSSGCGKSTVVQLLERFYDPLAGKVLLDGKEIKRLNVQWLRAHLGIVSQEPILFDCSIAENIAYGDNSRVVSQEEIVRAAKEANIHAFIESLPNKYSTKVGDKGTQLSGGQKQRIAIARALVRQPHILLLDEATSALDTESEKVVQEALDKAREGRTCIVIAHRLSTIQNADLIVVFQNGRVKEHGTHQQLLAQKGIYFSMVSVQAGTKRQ

A word on the efflux ratio: it is the permeability from basolateral to apical divided by that in the opposite direction, in the common usage. On to `O=C(Cc1ccc(-c2nncnn2)cc1)NCCF` [Compound 1′, 2-(4-(1,2,4,5-tetrazin-3-yl)phenyl)-N-(2-fluoroethyl)acetamide], for which the results for the efflux ratio on P-gp and at BCRP were 1.71 and 0.51, respectively. Besides, the fraction unbound is 0.69 in data set [1] and 0.51 in data set [2].
